{
  "source": "patent US6534516B1",
  "about": "“Androgen receptor modulator compounds and methods” (Ligand Pharmaceuticals Incorporated, priority 1996, dated 2003)",
  "key": {"[1]": {"target": "T1, human AR (Homo sapiens, UniProt P10275)", "T1 construct": "expressed in transfected cells; host or cells: CV-1 cells (African green monkey kidney fibroblasts)", "T1 sequence (P10275 1-920)": "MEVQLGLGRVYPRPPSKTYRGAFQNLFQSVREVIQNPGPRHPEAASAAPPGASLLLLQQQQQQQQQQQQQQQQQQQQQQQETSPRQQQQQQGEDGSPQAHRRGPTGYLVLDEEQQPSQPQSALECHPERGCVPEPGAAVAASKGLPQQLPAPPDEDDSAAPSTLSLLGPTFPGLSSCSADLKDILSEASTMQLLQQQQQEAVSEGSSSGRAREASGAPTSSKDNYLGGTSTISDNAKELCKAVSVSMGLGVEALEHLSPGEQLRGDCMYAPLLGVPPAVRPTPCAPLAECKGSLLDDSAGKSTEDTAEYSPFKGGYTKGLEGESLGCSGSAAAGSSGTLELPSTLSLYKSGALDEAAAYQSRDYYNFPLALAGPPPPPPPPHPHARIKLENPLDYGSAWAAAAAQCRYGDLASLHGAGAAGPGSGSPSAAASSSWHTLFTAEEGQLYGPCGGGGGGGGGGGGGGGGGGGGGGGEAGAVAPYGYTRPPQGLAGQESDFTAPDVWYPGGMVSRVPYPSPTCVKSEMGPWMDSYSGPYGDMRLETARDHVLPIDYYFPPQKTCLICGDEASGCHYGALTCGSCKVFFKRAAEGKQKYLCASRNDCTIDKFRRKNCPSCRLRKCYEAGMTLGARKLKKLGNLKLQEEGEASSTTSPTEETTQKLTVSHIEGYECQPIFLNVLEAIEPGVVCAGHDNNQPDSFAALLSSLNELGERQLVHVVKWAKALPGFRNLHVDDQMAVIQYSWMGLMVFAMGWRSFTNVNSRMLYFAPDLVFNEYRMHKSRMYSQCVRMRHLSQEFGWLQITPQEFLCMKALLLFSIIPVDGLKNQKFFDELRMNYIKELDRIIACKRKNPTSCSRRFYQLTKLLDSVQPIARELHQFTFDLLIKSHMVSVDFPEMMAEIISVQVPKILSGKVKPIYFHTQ", "test": "cell-based", "type": "cell-based", "excerpt": "The co-transfection assay provides a method for identifying functional agonists and partial agonists which mimic, or antagonists which inhibit, the effect of native hormones, and quantifying their activity for responsive IR proteins. In this regard, the co-transfection assay mimics an in vivo system in the laboratory. Importantly, activity in the co-transfection assay correlates very well with known in vivo activity, such that the co-transfection assay functions as a qualitative and quantitative predictor of a tested compounds in vivo pharmacology. See, e.g., T. Berger et al. 41 J. Steroid Biochem. Molec.\nCV-1 cells (African green monkey kidney fibroblasts) were cultured in the presence of Dulbecco's Modified Eagle Medium (DMEM) supplemented with 10% charcoal resin-stripped fetal bovine serum then transferred to 96-well microtiter plates one day prior to transfection.\nThe reporter plasmid, MTV-LUC, contains the cDNA for firefly luciferase (LUC) under control of the mouse mammary tumor virus (MTV) long terminal repeat, a conditional promoter containing an androgen response element. See e.g., Berger et al. supra. In addition, pRS-β-Gal, coding for constitutive expression of E. coli β-galactosidase (β-Gal), was included as an internal control for evaluation of transfection efficiency and compound toxicity.\nThree to four replicates were used for each sample.\nAfter 40 hours, the cells were washed with PBS, lysed with a Triton X-100-based buffer and assayed for LUC and β-Gal activities using a luminometer or spectrophotometer, respectively. For each replicate, the normalized response (NR) was calculated as:\nwhere β-Gal rate=β-Gal•1×10^−5/β-Gal incubation time."}, "[2]": {"target": "T2, PR (Homo sapiens, UniProt P06401)", "T2 sequence (P06401 1-933)": "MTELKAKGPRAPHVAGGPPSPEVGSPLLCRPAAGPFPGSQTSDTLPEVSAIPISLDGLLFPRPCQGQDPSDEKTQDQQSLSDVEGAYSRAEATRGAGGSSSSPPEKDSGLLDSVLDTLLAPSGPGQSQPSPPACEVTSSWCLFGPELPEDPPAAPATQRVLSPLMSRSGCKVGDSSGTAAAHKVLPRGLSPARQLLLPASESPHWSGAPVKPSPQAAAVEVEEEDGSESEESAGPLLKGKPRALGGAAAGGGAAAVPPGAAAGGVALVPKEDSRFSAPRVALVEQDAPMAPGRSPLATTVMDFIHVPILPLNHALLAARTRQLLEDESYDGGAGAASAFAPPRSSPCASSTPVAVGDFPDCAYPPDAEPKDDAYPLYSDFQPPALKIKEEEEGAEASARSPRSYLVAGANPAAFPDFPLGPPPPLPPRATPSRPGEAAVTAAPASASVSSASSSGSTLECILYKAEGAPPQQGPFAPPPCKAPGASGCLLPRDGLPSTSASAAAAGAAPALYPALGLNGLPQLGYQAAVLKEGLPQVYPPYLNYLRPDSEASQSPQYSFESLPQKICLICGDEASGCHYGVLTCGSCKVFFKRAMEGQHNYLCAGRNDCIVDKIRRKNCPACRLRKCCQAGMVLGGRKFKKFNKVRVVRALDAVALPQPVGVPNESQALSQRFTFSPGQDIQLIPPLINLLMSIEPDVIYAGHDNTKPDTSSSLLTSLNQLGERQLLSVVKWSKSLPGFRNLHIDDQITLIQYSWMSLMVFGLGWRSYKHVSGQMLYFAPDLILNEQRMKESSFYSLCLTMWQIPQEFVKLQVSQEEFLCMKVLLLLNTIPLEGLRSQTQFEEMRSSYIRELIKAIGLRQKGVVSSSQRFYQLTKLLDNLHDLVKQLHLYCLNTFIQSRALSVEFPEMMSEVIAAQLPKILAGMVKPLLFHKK", "test": "cell-based"}},
  "data": [
    {"smiles": "CC1(C)CCc2cc3c(C(F)(F)F)c(F)c(=O)[nH]c3cc2N1", "note": "[Compound 105, 7-Fluoro-1,2,3,4-tetrahydro-2,2-dimethyl-6-trifluoromethyl-8-pyridono[5,6-g]quinoline]", "values": [
      {"measurement": "AR Agonist CV-1 Cells Efficacy", "setting": "[1]", "value": "39 ± 6", "unit": "%"},
      {"measurement": "EC50", "setting": "[1]", "value": "125 ± 28", "unit": "nM"},
      {"measurement": "AR Antagonist CV-1 Cells Efficacy", "setting": "[1]; antagonist mode, DHT at its EC50, % of maximal inhibition, na = not active", "value": "39 ± 6", "unit": "%"},
      {"measurement": "IC50", "setting": "[1]; read-out: AR Antagonist CV-1 Cells Potency", "value": "34 ± 14", "unit": "nM"},
      {"measurement": "AR activity profile (in words)", "setting": "[1]; summary of Tables 1 and 2", "value": "mixed AR agonists/antagonists"},
      {"measurement": "IC50", "setting": "[2]", "value": 160, "unit": "nM"}
    ]}
  ]
}
